Results reported in patent US10093883B2, “Glucose gemini surfactant compound and method for preparation thereof” (ZHEJIANG UNIVERSITY, priority 2014, dated 2018).

Test: Surface activity test: critical micelle concentration (cmc), platinum plate method
Type: physicochemical
Settings: 20° C.
Protocol: The critical micelle concentration (cmc) of the target product was determined as 0.0068 mmol/L at 20° C., which was 3 times […] than that of the compound dodecyl glucose gemini surfactant (cmc=0.02 mmol/L) and is suitable for separation and extraction of detergents and biofilm proteins.

Row | critical micelle concentration (cmc) [mmol/L] | Structure (SMILES)
1 | 0.02 | CCCCCCCCCCCCOCC(COCCOCC(COCCCCCCCCCCCC)O[C@@H]1OC(CO)[C@@H](O)C(O)C1O)O[C@@H]1OC(CO)[C@@H](O)C(O)C1O (some centres unmarked) [dodecyl glucose gemini surfactant]
2 | 0.053 | CCCCCCCCCCCCCCOCC(COCCOCC(COCCCCCCCCCCCCCC)O[C@@H]1OC(CO)[C@@H](O)C(O)C1O)O[C@@H]1OC(CO)[C@@H](O)C(O)C1O (some centres unmarked) [tetradecyl glucose gemini surfactant]
